What all share (type): in vivo
Test [1] has as its system aging-accelerated model mice (SAMP10). As to the kind of experiment: Number of collisions during treadmill running, weekly test (Example 1). To be noted: after 30 weeks of age (tested to 35 weeks), SV peptide 20 ng/ml injected into bilateral lower limb muscles after treadmill training, vs PBS control group, FIG. 1. On the procedure: In this example, a peptide consisting of the amino acid sequence of SVVYGLR (SEQ ID No.: 1) (SV peptide) was administered to aging-accelerated model mice, and their effects on restoring muscle function were confirmed.
SV peptide was synthesized by the Fmoc method using a multi-species solid-phase automated peptide synthesizer (PSSM-8; Shimadzu Corp.) SV peptide was added to PBS and adjusted to 20 ng/ml to prepare an injection formulation.
Aging-accelerated model mice (SAMP10 21 weeks old) were used to perform training on a treadmill (MK-680; Muromachi Kikai Co., Ltd.) and subsequent SV peptide administration according to the schedule in the following table. […]
Once a week, the mice were tested on a treadmill to measure the number of collisions. After SV peptide injection, the mice have trained on the treadmill again (18 m/min×90 min), and the number of times the mice collided with the treadmill wall due to being unable to run at a speed equal to or faster than that of the belt was measured during treadmill training. […] In the control group, after training on the treadmill in the same manner as the experimental group, PBS was injected into the bilateral lower limb muscles instead of SV peptide, and the number of collisions was measured once a week.

The test system is the same in test [2]. Put plainly: Endurance evaluation test on treadmill, mean running distance (Example 4). As to the method:
In this example, we evaluated exercise in aging-accelerated model mice when SV peptide was administered continuously.
Aging-accelerated model mice (SAMP10 28 weeks old) were trained on a treadmill (MK-680; Muromachi Kikai Co., Ltd.) (18 m/min×90 min) and subsequent SV peptide administration was performed according to the schedule in the following table. After 30 weeks of age, training was performed continuously from Monday to Friday of each week. SV peptides were added to PBS to adjust to a concentration of 1 μg/ml or 20 ng/ml for injection formulation. Localized injections were made into the bilateral leg muscles of each mouse anesthetized by inhalation with sevoflurane immediately after training on Tuesday and Friday (SV group). Exercise evaluations were performed after SV peptide localization on Friday.
Exercise evaluations were conducted for endurance evaluation, in which the belt speed on the treadmill was increased incrementally at regular intervals, and for slope-up evaluation, in which the belt incline was increased incrementally at regular intervals. […] In the PBS group as the control group, PBS was localized to the bilateral lower limb muscles instead of SV peptide after training on the treadmill in the same manner as in the SV group.
The results of the endurance evaluation test are shown in FIG. 5 as a graph of the percent change in mean running distance. […] The mean running distance for each group was calculated as the mean value of running distance calculated based on the running time and speed of each mouse in each group (the mean distance was calculated in the same manner hereinafter). […] In the SVN group (SVN group) in which SV peptide was administered at the same site and at the same dose as in the SV group without training on the treadmill, the rate of change in mean running distance was measured.

Test [3] deals with aging-accelerated model mice. As to the kind of experiment: Endurance evaluation test on treadmill (Example 7). As to the method: In this example, the number of SV peptide doses and dosage in Example 4 were changed as shown in the following table, and exercise evaluation (endurance evaluation) was performed when SV peptide was continuously administered to aging-accelerated model mice. The conditions other than the number of SV peptide doses and dosage were the same as in Example 4.
Specifically, SV peptide was added to PBS to adjust to a concentration of 20 μg/ml for the injectable formulation, and localized to the bilateral lower limb muscles of each mouse anesthetized by inhalation with sevoflurane immediately after training once every 4 weeks (Friday) (SV group; once every 4 weeks).
The results of the endurance evaluation test are shown in FIG. 14 with a graph showing the mean running distance for the SV group (n=6) and the PBS group (n=6). In addition, graphs showing the difference between the mean running distance on the reference date (30 weeks of age) and the mean running distance in each test are shown in FIGS. 15 and 16. […] In FIG. 16, the sum of the absolute difference in mean running distance relative to the reference date in the SV group and the absolute difference in mean running distance relative to the reference date in the PBS group is shown as the SV treatment effect.
The change over time in the mean maximum speed in each group is shown in FIG. 17, and graphs showing the difference between the mean maximum speed on the reference date and the mean maximum speed on each test date are shown in FIGS. 18 and 19. […] In FIG. 19, the sum of the absolute difference in mean running distance relative to the reference date in the SV group and the absolute difference in mean running distance relative to the reference date in the PBS group is shown as the SV treatment effect. The treatment effect of more than 0.15 m/sec was confirmed at 34 and 39-41 weeks.

“SVVYGLR [SV peptide, peptide consisting of 7 amino acids (SVVYGLR]”: in test [1], the “number of collisions during treadmill running” value is given as “significant suppression of the increase in the number of collisions compared to the control group”. Further, in test [2] (SV group (training and SV peptide), during the measurement period, reference date 30 weeks), the “mean running distance compared to the reference date” value is “increased compared to that at the reference date”. The “rate of change of the mean running distance” value in test [2] (SV group (training performed and SV peptide injected, 1 μg/ml or 20 ng/ml, 2 times/W), mean running distance at 30 weeks (reference date) = 100%, FIG. 5) is given as “about 130%”. The “mean running distance over time” value in test [2] (SVN group: SV peptide at same site and dose without training on the treadmill, not shown in the figure) was “decreased over time”. Besides, in test [2] (SVN group: SV peptide without training on the treadmill, since the reference date (30 weeks = 100%)), the “rate of change in mean running distance” value is reported as at most 100%. Besides, the “SV treatment effect (sum of absolute differences relative to the reference date of SV group and PBS group)” value in test [3] (FIG. 19, at 34 and 39-41 weeks, SV peptide 20 μg/ml once every 4 weeks plus training) was “more than 0.15 m/sec”. For the same substance, the mean maximum speed entry in test [3] (SV group, 20 μg/ml once every 4 weeks plus training, at 41 weeks of age vs 30 weeks of age) is on record as “same mean maximum speed at 41 weeks of age as at 30 weeks of age”. Besides, the “decrease in the mean maximum speed during the test period” value in test [3] (SV group, 20 μg/ml once every 4 weeks plus training, compared to the PBS group) was “able to suppress the decrease in the mean maximum speed”. Moreover, in test [3] (SV group, 20 μg/ml once every 4 weeks plus training, test from 31 to 36 weeks of age, FIG. 17), the “mean speed (mean maximum speed)” value is reported as “continuous increase”. For the same substance, the mean running distance result is listed as “exceeded that of 30 weeks of age” in test [3] (SV group, SV peptide 20 μg/ml once every 4 weeks plus training, at 41 weeks of age vs 30 weeks of age) and “increased significantly” in test [3] (SV group, SV peptide 20 μg/ml once every 4 weeks plus training, from 31 to 36 weeks of age, FIGS. 14-16).

(Values after patent US20230381275A1, “MUSCULAR FUNCTION IMPROVING AGENT FOR SKELETAL MUSCLE OF WHICH FUNCTION IS DEGRADED DUE TO AGING” (OSAKA UNIVERSITY, priority 2020, published 2023).)
